Laboratory results reported in publication PMC9884426, “A phase 1 clinical trial of the repurposable acetyllysine mimetic, n-methyl-2-pyrrolidone (NMP), in relapsed or refractory multiple myeloma” (Clinical Epigenetics, 2023).
Several values for one entry are separate records, joined by “and”; a condition that tells them apart may be missing. Equal entries are not always repeated. Where two headings read alike, the source gives them in different places.

Assay: Plasma pharmacokinetics of oral NMP by LCMSMS
Type: in vivo, human
Settings: plasma, plasma
Procedure: Blood samples were taken from patients before NMP and at one, two, four, eight and 24 h post dose. Plasma samples (20 μl) were prepared by adding five volumes of methanol containing deuterated internal standard. The samples were vortexed then centrifuged, and the supernatant was transferred to a vial and injected onto the LCMSMS. The LCMSMS system consisted of a Shimadzu UHPLC with a SCIEX 6500QTrap, a KinetexC18 (3 × 50 mm, 2.6 μm) column and using a gradient of 0.1% formic acid and acetonitrile. The initial conditions were 0.5 ml/min and 2% acetonitrile; this was held for 1 min then increased to 20% acetonitrile at 2 min then increased to 70% acetonitrile and held for 0.5 min. Equilibration time was 0.5 min. MRMs for NMP were 100 → 58, 100 → 69, 100 → 41 and for the internal standard d9NMP 109 → 62, […]. PK analysis was performed using Pkanalix (version 2021R1. Antony, France: Lixoft SAS, 2021).

[1] = oral 25 mg, patient RMH-01 occasion 6
[2] = oral 50 mg, average of N = 5 profiles
[3] = oral 50 mg, individual profiles, patient RMH-01 occasions 1-5
[4] = oral 100 mg, average of N = 5 profiles
[5] = oral 100 mg, individual profiles, patient RMH-02 occasions 1-5
[6] = oral 200 mg, average of N = 8 profiles
[7] = oral 200 mg, individual profiles (PMC-03, MON-04, MON-06, MON-07, PMC-08)
[8] = oral 200 mg, individual profiles (PMC-03, MON-04, PMC-05, MON-06, MON-07, PMC-08)
[9] = oral 300 mg, average of N = 3 profiles
[10] = oral 300 mg, individual profiles (PMC-09, MON-10, MON-11)
[11] = oral 400 mg, average of N = 2 profiles
[12] = oral 400 mg, individual profiles (MON-11 occasion 2, MON-12)
[13] = oral 500 mg, patient MON-11 occasion 3
[14] = oral 600 mg, patient MON-11 occasion 4
[15] = oral 700 mg, patient MON-11 occasion 5
[16] = oral 800 mg, patient MON-11 occasion 6

CN1CCCC1=O [NMP, N-methyl-2-pyrrolidone]
AUC (human, po, 700 mg, oral 700 mg, patient MON-11 occasion 5, read-out: AUC): 57600 ng·h/mL | Cmax (human, po, 700 mg, oral 700 mg, patient MON-11 occasion 5, read-out: Cmax): 12400 ng/mL | half-life (human, po, 700 mg, oral 700 mg, patient MON-11 occasion 5, read-out: Half-life (converted)): 2.35 h | Tmax (human, po, 700 mg, oral 700 mg, patient MON-11 occasion 5, read-out: Tmax): 0.5 h | Cmax (human, po, 800 mg, 800 mg dose level, oral, one patient, read-out: highest Cmax achieved): ~168 µM | AUC (human, po, 800 mg, oral 800 mg, patient MON-11 occasion 6, read-out: AUC): 90300 ng·h/mL | Cmax (human, po, 800 mg, oral 800 mg, patient MON-11 occasion 6, read-out: Cmax): 16700 ng/mL | half-life (human, po, 800 mg, oral 800 mg, patient MON-11 occasion 6, read-out: Half-life (converted)): 1.75 h | Tmax (human, po, 800 mg, oral 800 mg, patient MON-11 occasion 6, read-out: Tmax): 1 h | Cmax (human, po, 800 mg, oral, one patient, read-out: Maximum plasma concentration (Cmax), highest achieved): 16700 ng/mL | half-life (human, po, all dose levels 25-800 mg oral, N = 28 profiles, read-out: Half-life, Overall Average (converted)): 1.55 h | AUC (human, po, all dose levels 25-800 mg oral, N = 29 profiles, read-out: AUC, Overall Average): 16900 ng·h/mL | Cmax (human, po, all dose levels 25-800 mg oral, N = 29 profiles, read-out: Cmax, Overall Average): 5290 ng/mL | Tmax (human, po, all dose levels 25-800 mg oral, N = 29 profiles, read-out: Tmax, Overall Average): ~0.5 h | CL/F [1]: 16.65 L⋅h⁻¹ | V/F [1]: 20.83 L | CL/F, Average [2]: 23.62 L⋅h⁻¹ | V/F, Average [2]: 36.62 L | AUC [3]: 1.86 h⋅mg⋅L⁻¹ and 1.88 h⋅mg⋅L⁻¹ and 2.09 h⋅mg⋅L⁻¹ and 2.18 h⋅mg⋅L⁻¹ | CL/F [3]: 17.68 L⋅h⁻¹ and 26.86 L⋅h⁻¹ and 26.66 L⋅h⁻¹ and 23.93 L⋅h⁻¹ and 22.97 L⋅h⁻¹ | Cmax [3]: 1.24 mg⋅L⁻¹ and 1.25 mg⋅L⁻¹ and 1.04 mg⋅L⁻¹ and 1.06 mg⋅L⁻¹ | V/F [3]: 30.85 L and 38.66 L and 41.02 L and 35.88 L and 36.67 L | half-life [3]: 0.99 h and 1.07 h and 1.04 h and 1.11 h | CL/F, Average [4]: 14.04 L⋅h⁻¹ | V/F, Average [4]: 36.98 L | AUC [5]: 7.25 h⋅mg⋅L⁻¹ and 6.95 h⋅mg⋅L⁻¹ and 7.61 h⋅mg⋅L⁻¹ and 6.88 h⋅mg⋅L⁻¹ | CL/F [5]: 14.35 L⋅h⁻¹ and 13.79 L⋅h⁻¹ and 14.4 L⋅h⁻¹ and 13.13 L⋅h⁻¹ and 14.53 L⋅h⁻¹ | Cmax [5]: 2.51 mg⋅L⁻¹ and 2.52 mg⋅L⁻¹ and 2.43 mg⋅L⁻¹ and 2.65 mg⋅L⁻¹ | V/F [5]: 34.92 L and 41.77 L and 37.5 L and 34.02 L and 36.67 L | CL/F, Average [6]: 25.52 L⋅h⁻¹ | V/F, Average [6]: 49.77 L | CL/F [7]: 31.82 L⋅h⁻¹ and 24.02 L⋅h⁻¹ and 25.05 L⋅h⁻¹ and 20.34 L⋅h⁻¹ and 18.2 L⋅h⁻¹ and 9.1 L⋅h⁻¹ and 57.76 L⋅h⁻¹ and 17.85 L⋅h⁻¹ | V/F [7]: 64.35 L and 55.72 L and 43.19 L and 37.65 L and 36.79 L and 26.02 L and 87.19 L and 47.25 L | AUC [8]: 6.29 h⋅mg⋅L⁻¹ and 8.33 h⋅mg⋅L⁻¹ and 7.98 h⋅mg⋅L⁻¹ and 9.83 h⋅mg⋅L⁻¹ and 5.49 h⋅mg⋅L⁻¹ and 10.99 h⋅mg⋅L⁻¹ and 21.99 h⋅mg⋅L⁻¹ and 3.46 h⋅mg⋅L⁻¹ and 11.21 h⋅mg⋅L⁻¹ | Cmax [8]: 2.33 mg⋅L⁻¹ and 3.98 mg⋅L⁻¹ and 4.43 mg⋅L⁻¹ and 5.05 mg⋅L⁻¹ and 2.05 mg⋅L⁻¹ and 4.95 mg⋅L⁻¹ and 7.26 mg⋅L⁻¹ and 2.64 mg⋅L⁻¹ and 3.79 mg⋅L⁻¹ | CL/F, Average [9]: 15.62 L⋅h⁻¹ | V/F, Average [9]: 33.93 L | AUC [10]: 32.55 h⋅mg⋅L⁻¹ and 12.73 h⋅mg⋅L⁻¹ and 21.3 h⋅mg⋅L⁻¹ | CL/F [10]: 9.22 L⋅h⁻¹ and 23.57 L⋅h⁻¹ and 14.08 L⋅h⁻¹ | Cmax [10]: 6.89 mg⋅L⁻¹ and 6.81 mg⋅L⁻¹ | V/F [10]: 22.09 L and 38.59 L and 41.1 L | half-life [10]: 1.13 h and 2.02 h | CL/F, Average [11]: 19.53 L⋅h⁻¹ | V/F, Average [11]: 42.44 L | AUC [12]: 15.99 h⋅mg⋅L⁻¹ | CL/F [12]: 14.03 L⋅h⁻¹ and 25.02 L⋅h⁻¹ | Cmax [12]: 7.63 mg⋅L⁻¹ | V/F [12]: 35.95 L and 48.93 L | half-life [12]: 1.36 h | CL/F [13]: 12.33 L⋅h⁻¹ | V/F [13]: 35.2 L | CL/F [14]: 10.59 L⋅h⁻¹ | V/F [14]: 33.11 L | CL/F [15]: 12.16 L⋅h⁻¹ | V/F [15]: 41.26 L | CL/F [16]: 8.86 L⋅h⁻¹ | V/F [16]: 22.43 L
